The source of these data is patent EP0415456A2, “Xanthine compounds” (priority 1989, dated 1991).

One data set concerns the target T1, Adenosine A₁ Receptor (Cavia porcellus, UniProt P47745).
T1 construct: from tissue; host or cells: guinea pig cerebrum membrane preparation
T1 sequence (P47745 1-326): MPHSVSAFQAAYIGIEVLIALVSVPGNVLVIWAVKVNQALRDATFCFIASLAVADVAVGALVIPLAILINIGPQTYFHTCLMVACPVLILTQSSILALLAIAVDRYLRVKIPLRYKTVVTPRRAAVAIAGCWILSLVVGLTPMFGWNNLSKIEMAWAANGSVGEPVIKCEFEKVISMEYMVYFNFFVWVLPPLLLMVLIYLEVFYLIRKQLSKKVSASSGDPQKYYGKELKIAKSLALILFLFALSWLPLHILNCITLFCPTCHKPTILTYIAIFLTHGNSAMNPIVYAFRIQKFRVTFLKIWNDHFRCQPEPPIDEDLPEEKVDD
Briefly: Adenosine A1 receptor binding (3H-CHA binding). Further details: species or system guinea pig. Conditions: for Ratio of Ki Values [A₂/A₁]: A₂ Ki (rat corpus striatum) / A₁ Ki (guinea pig cerebrum); for Ki: calculated from Cheng-Prusoff's equation, ³H-CHA; for Ki / inhibition at 100 µM / inhibition at 10 µM: guinea pig cerebrum; for inhibition at 100 µM: concentration of tested compound 10⁻⁴ M; for inhibition at 100 µM / inhibition at 10 µM: ³H-CHA 1.1 nM; for inhibition at 10 µM: concentration of tested compound 10⁻⁵ M. How it is done: Cerebrum of a guinea pig was suspended into ice cooled 50 mM tris hydroxymethyl aminomethane hydrochloride (Tris HCl) buffer (pH = 7.7), by using Polytron homogenizer (manufactured by Kinematica Co.). The suspension was centrifuged (50,000 x g, 10 minutes), and the precipitate was resuspended by adding the same volume of 50 mM Tris HCl buffer. The suspension was centrifuged under the same conditions, and the precipitate obtained was suspended once again by adding 10 volumes of 50 mM Tris HCl. The tissue suspension was incubated at 37°C for 30 minutes in the presence of 0.02 units/mg tissue of adenosine deaminase (manufactured by Sigma Co.). The resulting tissue suspension was recentrifuged (50,000 x g, 10 minutes), and 50 mM Tris HCl was added to the precipitate to adjust the concentration of tissue to 10 mg (wet weight)/mℓ.
The mixture was incubated at 25°C for 90 minutes, and the resulting reaction was stopped by rapid vacuum filtration through a glass fiber filter (GF/C manufactured by Whatman Co.) followed by immediately washing three times with 5 mℓ each of ice cold 50 mM Tris HCl buffer. […] Its radioactivity was then determined by a scintillation counter (manufactured by Packard Instrument Co.).
The inhibition rate of the test compounds against the binding of A₁ […] (³H-CHA binding) was calculated from the following equation: [formula]
• 1. […] The inhibition constant (Ki value) shown in the table was calculated from Cheng-Prusoff's equation.

For a further data set, the target named is T2, A₂ receptor (Rattus norvegicus, UniProt P30543).
T2 construct: A precipitate was prepared from rat corpus striatum; from tissue; host or cells: rat corpus striatum membrane preparation
T2 sequence (P30543 whole entry): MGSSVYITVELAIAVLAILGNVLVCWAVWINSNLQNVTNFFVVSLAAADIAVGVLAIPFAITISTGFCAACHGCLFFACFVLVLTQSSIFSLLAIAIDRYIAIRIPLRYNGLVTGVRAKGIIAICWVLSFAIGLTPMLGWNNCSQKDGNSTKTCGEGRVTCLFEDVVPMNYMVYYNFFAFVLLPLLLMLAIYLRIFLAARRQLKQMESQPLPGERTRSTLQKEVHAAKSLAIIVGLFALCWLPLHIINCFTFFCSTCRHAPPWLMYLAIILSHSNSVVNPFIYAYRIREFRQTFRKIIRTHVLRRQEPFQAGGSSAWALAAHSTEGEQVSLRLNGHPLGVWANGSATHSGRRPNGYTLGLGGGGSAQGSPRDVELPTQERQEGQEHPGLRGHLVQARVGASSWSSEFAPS
Briefly: Adenosine A2 receptor binding (3H-NECA binding). To be noted: for inhibition at 10 µM / inhibition at 100 µM: read-out: A₂ Receptor Inhibition (%). As to the method: A precipitate was prepared from rat corpus striatum in a similar manner as in 1) above. The precipitate was suspended by adding a 50 mM Tris HCl buffer containing 10 mM magnesium chloride and 0.02 unit/mg (tissue) of adenosine deaminase (manufactured by Sigma Co.) to adjust the concentration of tissue to 5 mg (wet weight)/mℓ.
The mixture was incubated at 25°C within 120 minutes. The resulting mixture was treated in the same manner as in 1) above to determine its radioactivity.
The inhibition rate of the test compound against the binding of A₂ receptor (³H-NECA binding) was calculated from the following equation: [formula]

Another data set has as its system Wistar rats. Briefly: diuretic effect. The data set is classed as in vivo. Conditions: urine collected for 6 hours; for Increase in K⁺ excretion (%) / Increase in Na⁺excretion (%) / Increase in Urine (%): relative to control; for Na⁺/K⁺: relative value of control (control 1.00). As to the method:
Wistar rats (male: 150 - 300 g) were starved for 18 hours prior to the administration of the test compounds. […] Urine was collected for 6 hours after the administration. Urine volume was measured and the electrolytes (Na+ and K+) in the urine were determined with a flame photome[…], Hitachi Ltd., Japan). All parameters are expressed as relative values of control.

Data set [1] deals with glycerol-induced renal failure model. Briefly: renal-protecting effect (glycerol-induced renal failure model). It counts as in vivo. Conditions: male Wistar rats; for suppression of increases of the serum creatinine and of urine-nitrogen: 0.01 - 10 mg/kg i.p., 24 hours after 50% glycerol s.c. (p < 0.05). As to the method: A renal failure is a state wherein the renal function is lowered and the homeostasis of a body fluid can be no more maintained. It is known that an acute renal failure characteristic of uriniferous tubule disorder is caused by subcutaneous or intramuscular injection of glycerol to rats [Can. J. Physiol.
Male Wistar rats were kept deprived or water for 18 hours, and served for the test. A test compound was intraperitoneally administered to the rats (dosage: 1 mℓ/kg) and the rats were anesthetized with ether and 50% glycerol was subcutaneously administered (dosage: 0.8mℓ/100g) to the rats, pinching the dorsal skin. Twenty four hours after the administration of glycerol, the rats were anesthetized with ether and 5 mℓ of blood were collected from the abdominal aorta. The collected blood was allowed to stand for 30 minutes or longer and then centrifuged at 3,000 rpm for 10 minutes, and the amounts of the serum creatinine and urine-nitrogen (UN) contained in the serum were determined by auto analyzer (Olympus AU510) or measured by a creatinine test Wako (Jaffé method) and UN Test Wako (diacetylmonooxime direct method). Both are manufactured by Wako Pure Chemicals Co.
On the other hand, the left kidneys of the blood-sampled rats were removed and placed in formalin-filled vial bottles, and used as samples for the pathological examination.

In the next data set the test system is male dd-strain mice. Briefly: acute toxicity test. The data set is classed as in vivo. How it is done: […]. The Minimum lethal dose (MLD) of the compounds was determined by observing whether or not the mice were alive after 7 days of the administration.
Setting [2] is: ³H-NECA with CPA, rat corpus striatum, read-out: A₂ Receptor Ki.
The mark [3] stands for this setting: amount of the administration 6.25 mg.kg, oral.

Read-outs that look alike come from different tables or passages of the source.

By Ki is commonly meant the dissociation constant of the complex between target and ligand, obtained from inhibition or displacement. What is called inhibition is the relative decrease from the control value, in per cent. In the case of `CCCn1c(=O)c2[nH]c([C@H]3CC[C@H]4CCC[C@H]43)nc2n(CCC)c1=O` (relative stereo) [Compound 6, 8-[(1R*,2S*,5R*)-bicyclo[3.3.0]oxtan-2-yl]-1,3-dipropylxanthine], on Adenosine A₁ Receptor, the “Ratio of Ki Values [A₂/A₁]” value is 112, the Ki is 5 nM, the inhibition at 100 µM came out at 101% and the inhibition at 10 µM was 100%. For the same compound, on A₂ receptor, the inhibition at 10 µM amounted to 70% and the inhibition at 100 µM amounted to 85%. At A₂ receptor (setting [2]), the Ki was 560 nM. Further, in the data set on Wistar rats (setting [3]), the “Increase in K⁺ excretion (%)” value is given as 87%, the “Increase in Na⁺excretion (%)” value was determined as 252%, the “Increase in Urine (%)” value came to 330% and the “Na⁺/K⁺” value is given as 1.88.
On to `CCCn1c(=O)c2[nH]c(-c3ccc(OCC(=O)NCCN)cc3)nc2n(CCC)c1=O` [XAC, reference compound], for which, in data set [1], the “suppression of increases of the serum creatinine and of urine-nitrogen” value (“suppression of increases … of urine-nitrogen” below) is listed as “weak effect”.
With `CCCn1c(=O)c2nc(C3CC4CCC3C4)[nH]c2n(CCC)c1=O` (stereo not drawn) [Compound 4, 8-[(1R*,2R*,5S*)-bicyclo[2.2.1)heptan-2-yl]-1,3-dipropylxanthine], the “Minimum lethal dose (MLD)” value in the data set on male dd-strain mice (mouse, in vivo, 10080 min) is listed as “more than 300 mg/kg”. In the data set with Wistar rats (25 mg/kg oral), the “Increase in K⁺ excretion (%)” value was 27%, the “Increase in Na⁺excretion (%)” value is given as 106%, the “Increase in Urine (%)” value was found to be 113% and the “Na⁺/K⁺” value worked out at 1.63.
For the compound `CC(C)Cn1c(=O)n(C)c(=O)c2[nH]c(C34CC5CC(CC3C5)C4)nc21` [Compound 30, 8-(Noradamantan-3-yl)-3-isobutyl-1-methylxanthine], in the data set with Wistar rats (25 mg/kg oral), the “Increase in K⁺ excretion (%)” value amounted to 50%, the “Increase in Na⁺excretion (%)” value came out at 126%, the “Increase in Urine (%)” value was 112% and the “Na⁺/K⁺” value stood at 1.50.
As to `Cn1c(=O)c2[nH]cnc2n(C)c1=O` [Aminophylline, reference compound], in the data set with Wistar rats (25 mg/kg oral), the “Increase in K⁺ excretion (%)” value is 17%, the “Increase in Na⁺excretion (%)” value amounted to 89%, the “Increase in Urine (%)” value amounted to 34% and the “Na⁺/K⁺” value amounted to 1.62. Further, the “suppression of increases … of urine-nitrogen” value in data set [1] is “weak effect”.
Turning to `NS(=O)(=O)c1cc(C(=O)O)c(NCc2ccco2)cc1Cl` [Furosemide, reference compound], in the data set on Wistar rats (25 mg/kg oral), the “Increase in Urine (%)” value is on record as 75% and the “Na⁺/K⁺” value came out at 1.07. Moreover, the “effect on serum creatinine” value in data set [1] (i.p., 24 hours after 50% glycerol s.c.) is “showed a tendency to increase the serum creatinine”.
With `CCCCn1c(=O)c2[nH]c(C34CC5CC(CC3C5)C4)nc2n(CCCC)c1=O` [Compound 29, 8-(Noradamantan-3-yl)-1,3-dibutylxanthine], at Adenosine A₁ Receptor, the “Ratio of Ki Values [A₂/A₁]” value came to 107, the Ki is 9.1 nM, the inhibition at 100 µM turned out to be 100% and the inhibition at 10 µM amounted to 100%. On A₂ receptor, the inhibition at 10 µM came to 72% and the inhibition at 100 µM worked out at 78%. Also, the inhibitory constant (Ki) at A₂ receptor (setting [2]) is 970 nM. Also, in the data set on Wistar rats (25 mg/kg oral), the “Increase in K⁺ excretion (%)” value was determined as 65%, the “Increase in Na⁺excretion (%)” value was determined as 137%, the “Increase in Urine (%)” value turned out to be 123% and the “Na⁺/K⁺” value is recorded as 1.43.
On to `CCCn1c(=S)c2[nH]c(C34CC5CC(CC3C5)C4)nc2n(CCC)c1=S` [Compound 33, 8-(Noradamantan-3-yl)-1,3-dipropyl-2,6-dithioxanthine], for which the “Minimum lethal dose (MLD)” value in the data set with male dd-strain mice (mouse, in vivo, 10080 min) is “more than 300 mg/kg”. Moreover, in the data set on Wistar rats (25 mg/kg oral), the “Increase in K⁺ excretion (%)” value turned out to be 40%, the “Increase in Na⁺excretion (%)” value is reported as 105%, the “Increase in Urine (%)” value worked out at 99% and the “Na⁺/K⁺” value is listed as 1.47.
For the compound “8-[(1R*,2R*,5S*)-Bicyclo[2.2.1]heptan-2-yl]methyl-1,3-dipropylxanthine [Compound 16]”, in the data set on Wistar rats (25 mg/kg oral), the “Increase in K⁺ excretion (%)” value was determined as 38%, the “Increase in Na⁺excretion (%)” value is 191%, the “Increase in Urine (%)” value is on record as 141% and the “Na⁺/K⁺” value was found to be 2.12. Moreover, the “suppression of increases … of urine-nitrogen” value in data set [1] is “significantly suppressed”. Further, the “pathological examination of removed kidneys: state of kidneys” value in data set [1] (i.p., left kidney removed 24 hours after 50% glycerol s.c.) was “significantly improved”.
Take `CCCn1c(=O)c2c(nc(C34CC5CC(CC3C5)C4)n2C)n(CCC)c1=O` [Compound 20, 1,3-Dipropyl-7-methyl-8-(noradamantan-3-yl)xanthine]: the “Minimum lethal dose (MLD)” value in the data set on male dd-strain mice (300 mg/kg orally administered, male dd-strain mice, observed 7 days after administration) is listed as “more than 300 mg/kg”.
As to `CCn1c(=O)c2[nH]c(C34CC5CC(CC3C5)C4)nc2n(CC)c1=O` [Compound 28, 8-(Noradamantan-3-yl)-1,3-diethylxanthine], on Adenosine A₁ Receptor, the “Ratio of Ki Values [A₂/A₁]” value worked out at 132, the Ki is 7.1 nM, the inhibition at 100 µM was 101% and the inhibition at 10 µM was 100%. For the same compound, on A₂ receptor, the inhibition at 10 µM was 61% and the inhibition at 100 µM was 78%. In addition, the Ki at A₂ receptor (setting [2]) stood at 940 nM.
Take `CCCn1c(=O)c2nc(CC34CC5CC(CC(C5)C3)C4)[nH]c2n(CCC)c1=O` [Compound 15, 8-(Adamantan-1-yl)methyl-1,3-dipropylxanthine]: in the data set with male dd-strain mice (mouse, in vivo, 10080 min), the “Minimum lethal dose (MLD)” value is reported as “more than 300 mg/kg”.
As to `CCCn1c(=O)c2c(nc([C@@H]3CC[C@H]4CCC[C@H]43)n2C)n(CCC)c1=O` (relative stereo) [Compound 18, 8-[(1R*,2R*,5R*)-Bicyclo[3.3.0]octan-2-yl]-1,3-dipropyl-7-methylxanthine], the “Minimum lethal dose (MLD)” value in the data set on male dd-strain mice (mouse, in vivo, 10080 min) is listed as “more than 300 mg/kg”.
As for `CCCn1c(=O)c2[nH]c(-c3ccc(S(=O)(=O)N(C)CCN(C)C)cc3)nc2n(CCC)c1=O` [PD 115199, reference compound], at Adenosine A₁ Receptor, the “Ratio of Ki Values [A₂/A₁]” value is listed as 0.14, the Ki was 190 nM, the inhibition at 100 µM came out at 100% and the inhibition at 10 µM amounted to 97%. Besides, on A₂ receptor, the inhibition at 10 µM was 94% and the inhibition at 100 µM was 98%. The Ki at A₂ receptor (setting [2]) is 26 nM. Moreover, the “suppression of increases … of urine-nitrogen” value in data set [1] was “totally ineffective”.
Take `Nc1nc2ccc(Cl)cc2c2nc(-c3ccco3)nn12` [CGS 15943, reference compound]: at A₂ receptor, the affinity corresponds to a Ki of 0.73 nM, the inhibition at 10 µM was 99% and the inhibition at 100 µM amounted to 97%.
